This note sets out measurements from patent publication US20250066323A1, “INHIBITORS OF HUMAN RESPIRATORY SYNCYTIAL VIRUS AND METAPNEUMOVIRUS” (priority 2023, published 2025).

One assay relates to RSV-A2-GFP. The experiment in a line: RSV-A2-GFP viral replication assay. Type of assay: cell-based, Human Respiratory Syncytial Virus. The text has this:
GFP sequence was derived from pJTI™ R4 Dest CMV N-EmGFP pA Vector (Invitrogen) and was cloned into the intergenic sequence between wild-type RSV-A2 P and M genes using standard recombineering techniques. Recombinant RSV-A2-GFP was propagated in Hep2 cells (human cells contains HeLa marker chromosomes and were derived via HeLa contamination, ATCC CCL-23) with infection Multiplicity of Infection (MOI) of 0.1. Virus was harvested 3 days after infection by collecting all culture material and freeze-thaw the viral culture in liquid nitrogen for at least 5 times. To generating virus working stocks, thaw frozen samples in 37° C. water bath then centrifuge at 218 g for 15 min at 4° C. Add 1/10 of 10×SPG (Biological Industries 06-3061-01-5A), mix, aliquot supernatant, and quick-freeze in liquid nitrogen then transfer to −80° C. freezer for storage. Virus titer was determined by automated plaque assay in HEp-2 cells following methods described previously (Wen Z. et al.; J Virol Methods. 2019 January; 263:88-95).
Calu-1 cells (human lung epidermoid carcinoma, ATCC HTB-54) assay ready freezedown (ARF generation described separately) were used in assays. Compound plates were prepared by dispensing compounds dissolved in DMSO into wells of 384 well coming 3985 polystyrene flat clear bottom optical imaging microplates (202.5 nL/well) using an ECHO acoustic dispenser. Each compound was tested in a 10-point serial 3-fold dilution (typical final concentrations: 403 nM-0.02 nM and 40.3 nM-0.002 nM). […] To set up the assay, thaw ARF vial(s) in 37° C. water bath until small ice crystal remain and resuspend into assay media (DMEM containing 2% FBS, 100 U/ml Penicillin-Streptomycin). Count cells using default parameters on ViCell and dilute to 20,000 cells per ml in assay media. Add RSV GFP to cells at 24,000 pfu/ml (MOI=1.2). Mix by gentle inversion. 10 μl/well of 100% DMSO was dispensed to CellTiter-Glo (CTG) assay Max_E controls wells. Dispense cells at 50 μl/well using Bravo and 50 μl filtered tips into compound plates. Cover plates with MicroClime lids loaded with 7.5 ml of assay media to minimize evaporation. Incubate at 37 degrees C. and 5% CO2 for 96 hrs. Following incubation, distinct, GFP-expressing cells are counted using an Acumen imaging system with appropriate settings. A same-well CTG assay is performed by adding 10 μl/well reconstituted CellTiter-Glo reagent (Promega G7573) and reading plates on PerkinElmer Envision according to manufacturer's instructions. Raw data were loaded and analyzed in ActivityBase. Antiviral IC50 and cytotoxicity CC50 values were determined using a 4 parameter logistic fit based on the Levenberg-Marquardt algorithm. Model: 205-4 Parameter Logistic.
Calu-1 cells were purchased from ATCC (Cat #HTB-54) and are expanded in growth media (DMEM containing 10% FBS, 100 U/ml Penicillin-Streptomycin). To make ARF, remove and discard cell culture media, briefly rinse the cell layer with PBS to remove all traces of serum. Add 2.5 ml of TrypLE Express solution and incubate until cells dislodge, then add growth media and resuspend the cells by gentle pipetting. Count cells for concentration and determine viability using a ViCell. Centrifuge at RT, 300 g for 5 min to pellet cells. Gently aspirate supernatant, flick pellet to loosen cells. Resuspend cells in an appropriate volume of freezing medium (DMEM containing 10% DMSO, 10% FBS, 100 U/ml Penicillin-Streptomycin) to achieve 5×10^6/ml. Transfer 1 ml of cell suspension to freezing vials. Put vials to CoolCell cryopreservation container and place CoolCell container upright in a −80° C. freezer overnight before transferring vials to liquid nitrogen vapor for storage.

The subject of the next assay is hMPV-GFP. The experiment in a line: hMPV-GFP viral replication assay. Type of assay: cell-based, human metapneumovirus. The settings on record: read-out: hMPV EC50. As for the experimental part: GFP expressing rgHMPV #3 p3 was generated in Dr. Buchholz's lab (Biacchesi S. et al., J Virol. 2007 June; 81(11): 6057-6067.) and propagated in VERO cells (kidney tissue derived from a normal, adult African green monkey. ATCC Cat #CCL-81) with infection Multiplicity of Infection (MOI) of 0.1. Virus was harvested 4 days after infection by collecting all culture material and freeze-thaw the viral culture in liquid nitrogen twice. To generating virus working stocks, thaw frozen samples in 37° C. water bath then centrifuge at 218 g for 15 min at 4° C. Add 1/10 of 10×SPG (Biological Industries 06-3061-01-5A), mix, aliquot supernatant, and quick-freeze in liquid nitrogen then transfer to −80° C. freezer for storage. Virus titer was determined by performing titration test in 96-well plates and calculate approximate virus titer using GFP event/well data.
Compound plates were prepared by dispensing compounds dissolved in DMSO into wells of 384 well coming 3985 polystyrene flat clear bottom optical imaging microplates (202.5 nL/well) using an ECHO acoustic dispenser. Each compound was tested in a 10-point serial 3-fold dilution (typical final concentrations: 40,300 nM-2 nM). […] Continuous culture of VERO cells were maintained in complete culture media (OptiMEM supplemented with 2 mM GlutaMAX™ and 100 U/ml Penicillin-Streptomycin). To set up the assay, trypsinize VERO cells with 0.25% Trypsin-EDTA until cells dislodge, then re-suspend cells with 1 mL FBS. Spin down cells at 300 g for 5 min and wash cells twice in culture media, then count cells using default parameters on ViCell. Cells were then diluted to 100,000 cells/ml (5,000 cells/50 μl) in complete culture media+TrypLE Select (80 μl/ml). Add hMPV-GFP virus to cells at 125,000 pfu/ml (MOI=1.25). Mix by gentle inversion. 10 μl/well of 100% DMSO was dispensed to CellTiter-Glo (CTG) assay Max_E controls wells. Dispense cells at 50 μl/well using Bravo and 50 μl filtered tips into compound plates. Cover plates with MicroClime lids loaded with 7.5 ml of assay media to minimize evaporation. Lightly shake plate for 10 minutes at room temperature then incubate at 37 degrees C. and 5% CO2 for 48 hrs. Following incubation, distinct, GFP-expressing cells are counted using an Acumen imaging system with appropriate settings. A same-well CTG assay is performed by adding 10 μl/well reconstituted CellTiter-Glo reagent (Promega G7573) and reading plates on PerkinElmer Envision according to manufacturer's instructions. Raw data were loaded and analyzed in ActivityBase. Antiviral IC50 and cytotoxicity CC50 values were determined using a 4 parameter logistic fit based on the Levenberg-Marquardt algorithm. Model: 205-4 Parameter Logistic.

The mark [1] stands for this setting: read-out: RSV EC50, Calu-1 cells, RSV-A2-GFP MOI=1.2, 96 hrs, GFP-expressing cells counted.
Where [2] appears, read: human metapneumovirus, Vero, 48 h.
The mark [3] stands for this setting: human respiratory syncytial virus, Calu-1, 96 h, read-out: RSV EC50, Calu-1 cells, RSV-A2-GFP MOI=1.2, 96 hrs, GFP-expressing cells counted.

Read-outs that look alike come from different tables or passages of the source.

For orientation: EC50 means the concentration giving half of the maximal effect. Regarding `CCOc1cc(C(=O)NCC(C)(O)c2cc(C(C)(C)N)cc(-c3ccc(F)cc3)n2)n(C)n1` (single isomer, unassigned) [Example 01-A], the EC50 in the assay with RSV-A2-GFP (setting [1]) and in the assay with hMPV-GFP (setting [2]) was greater than 100 nM in each case.

Turning to `CCOc1cc(C(=O)NCC(C)(O)c2cc(C(C)(C)N)cc(-c3ccc(F)cc3)n2)n(C)n1` (single isomer, unassigned) [Example 01-B], the EC50 with RSV-A2-GFP (setting [1]) is less than 10 nM; with hMPV-GFP (VERO cells, hMPV-GFP MOI=1.25, 48 hrs, GFP-expressing cells counted), greater than 100 nM.

Regarding `Cn1nc(-n2cccn2)cc1C(=O)NCC(C)(O)c1cc(C(C)(C)N)cc(-c2ccc(F)cc2)n1` (single isomer, unassigned) [Example 02-B], the EC50 in the assay on RSV-A2-GFP (setting [3]) was less than 10 nM; with hMPV-GFP (setting [2]) it was greater than 100 nM.

Consider `Cn1nc(-c2ccon2)cc1C(=O)NCC(C)(O)c1cc(C(C)(C)N)cc(-c2ccc(F)cc2)n1` (single isomer, unassigned) [Example 03-B], for which the EC50 was less than 10 nM in the assay on RSV-A2-GFP (setting [3]) and greater than 100 nM with hMPV-GFP (setting [2]).

Turning to `Cn1nc(-c2ncco2)cc1C(=O)NCC(C)(O)c1cc(C(C)(C)N)cc(-c2ccc(F)cc2)n1` (single isomer, unassigned) [Example 04-B], the values for the half-maximal effective concentration (EC50) with RSV-A2-GFP (setting [3]) and with hMPV-GFP (setting [2]) were less than 10 nM and greater than 100 nM, respectively.

Regarding `Cn1nc(-c2cscn2)cc1C(=O)NCC(C)(O)c1cc(C(C)(C)N)cc(-c2ccc(F)cc2)n1` (single isomer, unassigned) [Example 05-B], the figures for the EC50 with RSV-A2-GFP (setting [3]) and in the assay on hMPV-GFP (setting [2]) were less than 10 nM and greater than 100 nM, respectively.

In the case of `CCn1nc(-c2cscn2)cc1C(=O)NCC(C)(O)c1cc(C(C)(C)N)cc(-c2ccc(F)cc2)n1` (single isomer, unassigned) [Example 06-B], the EC50 in the assay on RSV-A2-GFP (setting [3]) is less than 10 nM; with hMPV-GFP (setting [2]), greater than 100 nM.

For `Cc1nc(-c2cscn2)sc1C(=O)NCC(C)(O)c1cc(C(C)(C)N)cc(-c2ccc(F)cc2)n1` (single isomer, unassigned) [Example 07-B], the EC50 in the assay with RSV-A2-GFP (setting [3]) was less than 10 nM; in the assay with hMPV-GFP (setting [2]), greater than 100 nM.

On to `CC(C)(N)c1cc(-c2ccc(F)cc2)nc(C(C)(O)CNC(=O)c2sc(-c3cscn3)nc2C2CC2)c1` (single isomer, unassigned) [Example 08-B], for which the EC50 is less than 10 nM with RSV-A2-GFP (setting [3]) and greater than 100 nM in the assay on hMPV-GFP (setting [2]).

Regarding `Cn1nc(-n2cccn2)cc1C(=O)NCC(C)(O)c1cc(C(C)(C)N)cc(-c2ccc(F)c(F)c2)n1` (single isomer, unassigned) [Example 38-B, N-(2-(4-(2-aminopropan-2-yl)-6-(3,4-difluorophenyl)pyridin-2-yl)-2-hydroxypropyl)-1′-methyl-1′H-[1,3′-bipyrazole]-5′-carboxamide], in the assay with RSV-A2-GFP (setting [3]), the EC50 is less than 10 nM.

For the compound `Cn1nc(-n2cccn2)cc1C(=O)NCC(C)(O)c1cc(C(C)(C)N)cc(-c2ccc(Cl)c(F)c2)n1` (single isomer, unassigned) [Example 39-B, N-(2-(4-(2-aminopropan-2-yl)-6-(4-chloro-3-fluorophenyl)pyridin-2-yl)-2-hydroxypropyl)-1′-methyl-1′H-[1,3′-bipyrazole]-5′-carboxamide], in the assay on RSV-A2-GFP (setting [3]), the EC50 is less than 10 nM.

Turning to `Cn1nc(-n2cccn2)cc1C(=O)NCC(C)(O)c1cc(C(C)(C)N)cc(Cc2ccc(F)cc2)n1` (single isomer, unassigned) [Example 40-B, N-(2-(4-(2-aminopropan-2-yl)-6-(4-fluorobenzyl)pyridin-2-yl)-2-hydroxypropyl)-1′-methyl-1′H-[1,3′-bipyrazole]-5′-carboxamide], the EC50 in the assay with RSV-A2-GFP (setting [3]) is less than 10 nM.

As to `Cn1nc(-n2cccn2)cc1C(=O)NCC(O)(c1cc(C(C)(C)N)cc(-c2ccc(C(F)F)cc2)n1)C(F)(F)F` (single isomer, unassigned) [Example 41-A, N-(2-(4-(2-aminopropan-2-yl)-6-(4-(difluoromethyl)phenyl)pyridin-2-yl)-3,3,3-trifluoro-2-hydroxypropyl)-1′-methyl-1′H-[1,3′-bipyrazole]-5′-carboxamide], the EC50 with RSV-A2-GFP (setting [3]) was less than 10 nM.

Consider `Cn1nc(-n2cccn2)cc1C(=O)NCC(O)(c1cc(C(C)(C)N)cc(-c2ccc(C(F)(F)F)cc2)n1)C(F)(F)F` (single isomer, unassigned) [Example 42-A, N-(2-(4-(2-aminopropan-2-yl)-6-(4-(trifluoromethyl)phenyl)pyridin-2-yl)-3,3,3-trifluoro-2-hydroxypropyl)-1′-methyl-1′H-[1,3′-bipyrazole]-5′-carboxamide], for which the EC50 in the assay with RSV-A2-GFP (setting [3]) was less than 10 nM.

As for `Cn1nc(-n2cccn2)cc1C(=O)NCC(O)(c1cc(C(C)(C)N)cc(-c2ccc(F)c(F)c2)n1)C(F)(F)F` (single isomer, unassigned) [Example 43-A, N-(2-(4-(2-aminopropan-2-yl)-6-(3,4-difluorophenyl)pyridin-2-yl)-3,3,3-trifluoro-2-hydroxypropyl)-1′-methyl-1′H-[1,3′-bipyrazole]-5′-carboxamide], the EC50 in the assay on RSV-A2-GFP (setting [3]) was less than 10 nM.

Take `Cn1nc(-n2cccn2)cc1C(=O)NCC(O)(c1cc(C(C)(C)N)cc(-c2ccc(F)cc2F)n1)C(F)(F)F` (single isomer, unassigned) [Example 44-A, N-(2-(4-(2-aminopropan-2-yl)-6-(2,4-difluorophenyl)pyridin-2-yl)-3,3,3-trifluoro-2-hydroxypropyl)-1′-methyl-1′H-[1,3′-bipyrazole]-5′-carboxamide]: the EC50 with RSV-A2-GFP (setting [3]) was less than 10 nM.

With `Cc1cc(F)ccc1-c1cc(C(C)(C)N)cc(C(O)(CNC(=O)c2cc(-n3cccn3)nn2C)C(F)(F)F)n1` (single isomer, unassigned) [Example 45-A, N-(2-(4-(2-aminopropan-2-yl)-6-(4-fluoro-2-methylphenyl)pyridin-2-yl)-3,3,3-trifluoro-2-hydroxypropyl)-1′-methyl-1′H-[1,3′-bipyrazole]-5′-carboxamide], the 50% effective concentration (EC50) with RSV-A2-GFP (setting [3]) was less than 10 nM.
